Experimental data as given in patent US6537800B1, “Apparatus for automatically measuring minute membrane potential” (Center for Advanced Science and Technology Incubation, Ltd., priority 1998, dated 2003).

What was measured:
PC12 cells [1] = experiment: Cell survival rate after injection process (LY retaining rate); assay type: cell-based, rat
Description: A cell survival rate after the injection process was compared between cells subjected to the normal microinjection process using the physical shearing force and cells subjected to the photosensitizing microinjection.
The LY was injected into the cell by means of microinjection. In a dead cell with its cell membrane collapsed, the LY disperses quickly to lose its color [Cell, 14, 741-759 (1987)]. Thus, using a rate at which the cell subjected to the injection process holds the LY, as an index indicating the cell survival rate, the survival rates 3 and 6 days after the injection process were compared to each other.
In FIG. 13, the axis of abscissa indicates the number of days passing after the injection process (unit: day), while the axis of ordinate indicates the survival rate (units %).

PC12 cells [2] = experiment: Membrane resistance and membrane potential after light irradiation (patch clamp); assay type: cell-based, rat
Description: Since minute membrane defects must be monitored at a cell level for a period of time in the order of seconds to several minutes including a recovery process, the patch clamp method, which is used for electrophysiological experiments, was used to measure the potential between the cell membranes or ion current transmitted through the cell membrane.
The photosensitizer BAT was dispersed in a HEPES (25 mM, pH 7.4) buffer.
The cells were incubated in a culture medium for electrophysiological experiments at roam temperature. The culture medium used for this experiment was composed of 124 mM of NaCl, 5 mM of KCl, 2.4 mM of CaCl2.2H2O, 1.3 mM of MgSO4.7H2O, and 10 mM of glucose, with a final pH adjusted to 7.4 by addition of NaOH. To prevent the averse effects of evaporation, the culture medium for electrophysiological experiments was replaced with a new at the intervals of 40 minutes at maximum.
The BAT was added so as to have a final Concentration of 49 μM. The quantity of light applied was set at three levels: 0.47 J/cm^2, 0.94 J/cm^2, and 1.57 J/cm^2.
A liquid in the patch electrode was composed of 132 mM of KCl, 8 mM of NaCl, 2 mM of MgCl2, 30 mM of HEPES, 4 mM of Na2ATP, 0.3 mM of GTP, and 0.5 mM of EGTA, with a final pH adjusted to 7.3 by addition of NaOH.
Since a zoom function allows light to be concentrated in an area smaller than a normal area, the amount of light per unit area increases in proportion to the square of a zoom magnification. The excitation light is transmitted through the plastic of the collagen coat dish before actually reaching the cell, so that a decrease in light quantity must actually be taken into consideration.
In irradiating the cell with the excitation light, a TTL signal operating in connection with an electrophysiological record is transmitted to the light source as required to synchronize the light irradiation with electric measurements.
Before starting the electrophysiological experiments, the cell membrane potential had been maintained between −80 and −60 mV.
The cell membrane potential measuring amplifier was Axpopatch 1-D (Axon Instruments). The membrane resistance was calculated from a change in membrane potential occurring when a 1-Hz rectangular-wave overpolarization current flowed through the membrane for 350 milliseconds. The amount of, current supplied (0.1 or 0.15 nA) was selected so that the change in membrane potential would not exceed 30 mV when power was supplied. Under these experimental conditions, the PC12 cell generated no action potential. Measured potential and current values were analyzed using Axoscope ver. 1.1 (manufactured by Axon Instruments).
In FIG. 9, the axis of abscissa indicates an elapsed time (unit: second). The axis of ordinate indicates the resistance of the cell membrane (unit: %) in the upper part and the potential thereof in the lower part, both values being normalized by setting corresponding values prior to irradiation equal to […]. The membrane resistance reflects the ion transmission inhibiting capability, and the membrane potential reflects the active ion transporting capability of the membrane effected by activities of various intermembrane ion transporting systems as well as the ion transmission inhibiting capability.
A microinjection device was connected to a minute glass pipette held in a micromanipulator, and the minute glass pipette was filled with a solution with the photosensitizer BAT dispersed therein (BAT concentration: 2 mM, water solvent). The glass pipette was located in such a manner that its tip was connected to the patch electrode and located within 200 μm from a cell for which the membrane potential and resistance were to be measured.

PC12 cells [3] = experiment: Microinjection success rate (Lucifer Yellow injection) using photosensitized membrane destruction; assay type: cell-based, rat; conditions: BAT-containing injection liquid, no light applied, capillary kept in contact with cell, n=30
Description: To determine whether the microinjection process was successful, the water-soluble fluorescent pigment Lucifer Yellow CH (LY)was added to an injection liquid. […] Evaluation was made to determine how the success rate of injection of the LY into the cell varied depending on the presence of the photosesirizer BAT in the injection liquid or the presence of application of the BAT exciting light.
To make the microinjection successful, a glass capillary having a diameter of several hundred nanometers at a tip opening thereof must be brought into contact with the cell at a high speed to physically instantaneously penetrate and punch the cell membrane. In the experiments, an electric micromanipulator (manufactured by Eppendorf; Micromanipulator 5171) and an electric injector (manufactured by Eppendorf; Transjector 5246), which can both operate under the control of a program, could be used to set a speed at which the capillary contacted with the membrane, at an arbitrary value. In addition, the injection capillary was a commercially available product (manufactured by Eppendorf; FemtoTips) mass-produced for the above apparatuses. […]

Water solubility = assay type: physicochemical
Description: A thiophen oligomer having an aminomethyl group at a terminal thereof has a higher water solubility than any other derivative of the same kind due to this terminal aminomethyl group. The water solubility varies depending on how the aminomethyl group is released. […] By irrigating the cell with the BAT-dispersed solution under the above pH condition, this molecule can be easily added to a surface of the cell. The hydrophilic property of the BAT molecule is new and is absent from the other modified thiophen oligomers including an a terthienyl derivative as well as other molecules designed as conductive high-molecular monomers.

[4] = B: 4.94 J/cm^2 light, BAT 49 μM, several seconds after irradiation

NNC(=O)NN1C(=O)c2cc(S(=O)(=O)O)cc3c(N)c(S(=O)(=O)O)cc(c23)C1=O [LY, Lucifer Yellow CH, reference compound] showed a survival rate (PC12 cells [1]; control examples: normal injection, 3 days after the injection) of 17%.
With Cl.Cl.NCc1ccc(-c2ccc(-c3ccc(CN)s3)s2)s1 [BAT, 5′5″-bis(aminomethyl)-2,2′:5′2″-terthiophene dihydrochloride] the “cell membrane resistance and membrane potential after light irradiation” value (PC12 cells [2]; A: 0.47 J/cm^2 light, BAT 49 μM, 363-nm argon ion laser) was “varied slightly but not significantly”, the “cell membrane resistance after light irradiation” value (PC12 cells [2]; [4]) was “decreased” and the “membrane potential after light irradiation” value (PC12 cells [2]; [4]) was “depolarized”. For the same molecule, the “cell membrane potential after laser beam” value (PC12 cells [2]; BAT 2 mM dispersed solution ejected from minute glass pipette onto target cell, laser as in Example 3) was “depolarized”, the “time after light irradiation to loss of membrane resistance and potential” value (PC12 cells [2]; C: 1.57 J/cm^2 light, BAT 49 μM) was “about 8 seconds” and the “cell membrane resistance and membrane potential after light irradiation” value (PC12 cells [2]; C: 1.57 J/cm^2 light, BAT 49 μM, then remained at fixed values (irreversible)) was “lost”. The injection success rate (PC12 cells [3]) was 13%, the “cell survival rate (LY retention)” value (PC12 cells [1]; photosensitizing injection (BAT + light), three to six days after injection) was “about 90%” and the water solubility (Water solubility; acid water solution (bivalent positive charge)) was “easily soluble”. The water solubility (Water solubility; water solution with biologically suitable pH range (near 7.4), univalent positive charge type) was “maintains a high water solubility”.
